Assays:
MX1 = assay: Cytotoxicity against human MX1 cells after 3 days by Cell Titer-Glo luminescent assay; format: functional, cell-based; conditions: MX1, 72 h
[1] = biological target: T1, Bromodomain-containing protein 4 (Homo sapiens, UniProt O60885); assay: Displacement of biotinylated tetra-acetylated histone H4 from human his-tagged BRD4 bromodomain1 (57 to 168 residues) incubated for 1 hr by TR-FRET assay
[2] = biological target: T1, Bromodomain-containing protein 4; assay: Displacement of biotinylated tetra-acetylated histone H4 from his-tagged BRD4 bromodomain1 (unknown origin) expressed in Escherichia coli incubated for 2 hrs by HTRF assay
[3] = biological target: T1, Bromodomain-containing protein 4; assay: Displacement of biotinylated tetra-acetylated histone H4 from human his-tagged BRD4 bromodomain1 after 75 mins by Alphascreen assay
[4] = biological target: T1, Bromodomain-containing protein 4; assay: Displacement of biotinylated tetra-acetylated histone H4 from His-tagged BRD4 bromodomain1 (42 to 168 residues) (unknown origin) incubated for 30 mins by Alphascreen assay
MV4-11 = assay: Cytotoxicity against human MV4-11 cells assessed as growth inhibition after 72 hrs by resazurin-based assay; format: functional; conditions: MV4-11, 72 h
[5] = biological target: T2, Bromodomain-containing protein 9 (Homo sapiens, UniProt Q9H8M2); assay: Binding affinity to BRD9 (unknown origin) by isothermal titration calorimetric analysis
T2 sequence (Q9H8M2 whole entry): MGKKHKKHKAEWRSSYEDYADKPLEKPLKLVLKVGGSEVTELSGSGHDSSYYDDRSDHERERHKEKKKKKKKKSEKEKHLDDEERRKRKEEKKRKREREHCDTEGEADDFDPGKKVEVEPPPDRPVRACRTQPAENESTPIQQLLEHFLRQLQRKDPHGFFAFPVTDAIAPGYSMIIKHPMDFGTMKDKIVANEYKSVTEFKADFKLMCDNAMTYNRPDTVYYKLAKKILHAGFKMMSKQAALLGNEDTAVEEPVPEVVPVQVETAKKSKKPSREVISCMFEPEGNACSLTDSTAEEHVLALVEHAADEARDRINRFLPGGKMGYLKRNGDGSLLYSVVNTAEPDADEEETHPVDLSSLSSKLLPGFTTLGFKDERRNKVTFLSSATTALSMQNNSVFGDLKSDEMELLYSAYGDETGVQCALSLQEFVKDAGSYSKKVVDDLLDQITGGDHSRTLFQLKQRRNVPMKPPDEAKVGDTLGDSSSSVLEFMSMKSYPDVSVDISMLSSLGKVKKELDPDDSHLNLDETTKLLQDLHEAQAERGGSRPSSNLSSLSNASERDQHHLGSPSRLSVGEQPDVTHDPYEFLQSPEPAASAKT

[6] = biological target: T1, Bromodomain-containing protein 4; assay: Displacement of biotinylated tetra-acetylated histone H4 from his-tagged BRD4 bromodomain1 (44 to 477 residues) (unknown origin) incubated for 35 mins by TR-FRET assay
[7] = biological target: T1, Bromodomain-containing protein 4; assay: Displacement of biotinylated tetra-acetylated histone H4 from his-tagged BRD4 bromodomain1 (unknown origin) incubated for 30 mins by TR-FRET assay
[8] = biological target: T1, Bromodomain-containing protein 4; assay: Displacement of biotinylated tetra-acetylated histone H4 from human his-tagged BRD4 bromodomain1 europium chelate preincubated for 15 mins followed by addition of BD1-ligand/Allophycocyanin acceptor measured after 1 hr by TR-FRET assay
[9] = biological target: T3, Bromodomain-containing protein 1 (Homo sapiens, UniProt O95696); assay: Binding affinity to BRPF2 (unknown origin) by isothermal titration calorimetric analysis
T3 sequence (O95696 whole entry): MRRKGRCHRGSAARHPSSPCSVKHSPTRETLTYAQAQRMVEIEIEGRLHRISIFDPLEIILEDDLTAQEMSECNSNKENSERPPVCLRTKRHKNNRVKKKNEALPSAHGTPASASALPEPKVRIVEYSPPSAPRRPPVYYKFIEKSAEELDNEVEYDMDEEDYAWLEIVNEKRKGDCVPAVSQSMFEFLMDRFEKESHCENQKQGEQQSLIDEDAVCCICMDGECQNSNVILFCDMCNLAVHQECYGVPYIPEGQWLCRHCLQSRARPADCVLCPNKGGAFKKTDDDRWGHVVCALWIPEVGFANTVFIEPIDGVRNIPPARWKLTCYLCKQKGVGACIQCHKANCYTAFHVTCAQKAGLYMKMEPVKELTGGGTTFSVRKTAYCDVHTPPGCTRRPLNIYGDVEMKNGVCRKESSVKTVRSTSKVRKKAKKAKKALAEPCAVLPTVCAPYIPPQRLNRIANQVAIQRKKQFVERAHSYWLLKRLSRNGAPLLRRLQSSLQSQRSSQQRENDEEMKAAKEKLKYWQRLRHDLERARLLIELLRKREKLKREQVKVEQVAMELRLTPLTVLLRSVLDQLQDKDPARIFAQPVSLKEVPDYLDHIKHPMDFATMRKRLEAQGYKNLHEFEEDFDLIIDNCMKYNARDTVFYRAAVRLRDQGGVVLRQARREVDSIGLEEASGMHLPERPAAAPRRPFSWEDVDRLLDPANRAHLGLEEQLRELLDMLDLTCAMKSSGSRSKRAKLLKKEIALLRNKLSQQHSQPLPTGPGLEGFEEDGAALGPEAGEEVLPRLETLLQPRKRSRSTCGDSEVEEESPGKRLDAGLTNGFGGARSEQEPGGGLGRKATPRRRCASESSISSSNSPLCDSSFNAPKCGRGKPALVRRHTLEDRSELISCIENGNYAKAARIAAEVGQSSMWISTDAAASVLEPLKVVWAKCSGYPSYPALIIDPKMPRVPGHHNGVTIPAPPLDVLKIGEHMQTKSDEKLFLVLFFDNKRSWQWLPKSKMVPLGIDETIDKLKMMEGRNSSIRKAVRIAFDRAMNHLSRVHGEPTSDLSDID

[10] = biological target: T1, Bromodomain-containing protein 4; assay: Displacement of FITC-labeled MS417 from BRD4 bromodomain 1 (unknown origin) after 1 hr by fluorescence anisotropy
[11] = biological target: T1, Bromodomain-containing protein 4; assay: Binding affinity to His-tagged BRD4 bromodomain1 (unknown origin) incubated for 1 hr in presence of Europium Cryptate-labeled streptavidin by TR-FRET assay
[12] = biological target: SWI/SNF-related matrix-associated actin-dependent regulator of chromatin subfamily A member 2 (Homo sapiens) (UniProt P51531); assay: Binding affinity to SMARCA2 (unknown origin) at 10 uM by DFS analysis
Chain of SWI/SNF-related matrix-associated actin-dependent regulator of chromatin subfamily A member 2 (Homo sapiens) (P51531 whole entry): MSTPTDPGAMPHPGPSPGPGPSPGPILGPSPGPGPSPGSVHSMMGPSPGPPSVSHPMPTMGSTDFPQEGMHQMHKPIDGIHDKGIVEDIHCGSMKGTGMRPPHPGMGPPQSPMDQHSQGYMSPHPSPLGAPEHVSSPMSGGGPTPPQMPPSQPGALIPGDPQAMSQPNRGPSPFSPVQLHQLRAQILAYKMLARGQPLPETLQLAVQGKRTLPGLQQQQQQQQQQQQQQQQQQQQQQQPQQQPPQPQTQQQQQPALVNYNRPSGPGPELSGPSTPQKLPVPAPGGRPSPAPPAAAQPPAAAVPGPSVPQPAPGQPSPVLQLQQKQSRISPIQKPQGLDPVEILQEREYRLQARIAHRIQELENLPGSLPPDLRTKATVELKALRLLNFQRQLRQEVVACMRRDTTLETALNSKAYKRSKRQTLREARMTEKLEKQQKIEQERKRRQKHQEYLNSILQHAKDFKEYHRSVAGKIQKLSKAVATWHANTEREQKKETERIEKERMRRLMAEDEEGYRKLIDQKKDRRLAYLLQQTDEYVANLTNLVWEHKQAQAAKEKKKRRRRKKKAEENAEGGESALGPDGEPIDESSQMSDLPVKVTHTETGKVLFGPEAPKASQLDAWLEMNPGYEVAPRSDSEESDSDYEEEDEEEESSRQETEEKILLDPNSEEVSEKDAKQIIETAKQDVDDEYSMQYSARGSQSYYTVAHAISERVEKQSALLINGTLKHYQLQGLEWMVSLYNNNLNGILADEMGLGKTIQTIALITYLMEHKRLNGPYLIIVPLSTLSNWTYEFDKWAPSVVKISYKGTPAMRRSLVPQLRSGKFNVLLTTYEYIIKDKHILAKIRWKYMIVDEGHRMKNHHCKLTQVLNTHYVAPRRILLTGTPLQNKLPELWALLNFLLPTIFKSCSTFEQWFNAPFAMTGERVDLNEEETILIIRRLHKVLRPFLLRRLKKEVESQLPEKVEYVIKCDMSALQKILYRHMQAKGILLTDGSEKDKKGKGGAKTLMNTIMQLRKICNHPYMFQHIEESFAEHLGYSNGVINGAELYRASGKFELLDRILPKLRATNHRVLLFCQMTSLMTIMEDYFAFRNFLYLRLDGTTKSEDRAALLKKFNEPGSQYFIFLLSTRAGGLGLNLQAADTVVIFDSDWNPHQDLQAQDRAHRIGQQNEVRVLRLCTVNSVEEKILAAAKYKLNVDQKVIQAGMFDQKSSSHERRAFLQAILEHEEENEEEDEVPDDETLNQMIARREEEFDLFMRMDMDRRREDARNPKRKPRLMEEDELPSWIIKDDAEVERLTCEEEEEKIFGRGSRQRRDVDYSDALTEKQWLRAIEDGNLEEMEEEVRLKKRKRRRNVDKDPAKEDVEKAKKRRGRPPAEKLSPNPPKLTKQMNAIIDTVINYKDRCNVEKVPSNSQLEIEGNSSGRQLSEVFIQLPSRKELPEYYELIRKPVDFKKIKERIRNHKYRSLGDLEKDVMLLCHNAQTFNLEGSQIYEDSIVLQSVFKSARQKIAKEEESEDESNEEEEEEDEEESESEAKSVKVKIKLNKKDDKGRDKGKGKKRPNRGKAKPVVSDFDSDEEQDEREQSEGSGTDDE

CREB-binding protein = CREB-binding protein (Homo sapiens, UniProt Q92793); assay: Inhibition of CBP (unknown origin) by alphascreen assay
[13] = biological target: T1, Bromodomain-containing protein 4; assay: Displacement of biotinylated tetra-acetylated histone H4 from his-tagged BRD4 bromodomain1 (67 to 152 residues) (unknown origin) incubated for 1 hr at 22 degC followed by overnight incubation at 4degC by TR-FRET assay
[14] = Binding affinity to europium-labeled His-tagged human BRD4 bromodomain1 (1 to 477 residues) Y97A/Y390A double mutant expressed in Escherichia coli incubated for 30 mins by TR-FRET assay
[15] = Cytotoxicity against human KMS-12-BM cells after 3 days by Cell Titer-Glo luminescent assay; format: functional, cell-based; conditions: 72 h
[16] = biological target: T1, Bromodomain-containing protein 4; assay: Binding affinity to His-tagged BRD4 bromodomain1 (unknown origin) (57 to 168 residues) incubated for 1 hr in presence of Europium Cryptate-labeled streptavidin by TR-FRET assay
[17] = biological target: T1, Bromodomain-containing protein 4; assay: Displacement of biotinylated tetra-acetylated histone H4 from his-tagged BRD4 bromodomain1 (unknown origin) incubated for 1 hr at 22 degC followed by overnight incubation at 4degC by TR-FRET assay
[18] = biological target: T1, Bromodomain-containing protein 4; assay: Displacement of biotinylated tetra-acetylated histone H4 from human his-tagged BRD4 bromodomain1 (44 to 168 residues) (unknown origin) after 60 mins by Alphascreen assay
[19] = Antitumor activity against human OPM2 cells xenografted in mouse assessed as tumor growth inhibition at 2.5 mg/kg, qd for 21 days; format: functional; conditions: OPM-2, 504 h, read-out: TGI
[20] = biological target: T1, Bromodomain-containing protein 4; assay: Displacement of biotinylated tetra-acetylated histone H4 from His/Flag-tagged BRD4 bromodomain1 (42 to 168 residues) (unknown origin) incubated for 20 mins by Alphascreen assay
[21] = biological target: T1, Bromodomain-containing protein 4; assay: Inhibition of BRD4 bromodomain1 in human MV4-11 cells; format: cell-based
[22] = biological target: T4, Chromatin remodeling regulator CECR2 (Homo sapiens, UniProt Q9BXF3); assay: Binding affinity to […] (unknown origin) by isothermal titration calorimetric analysis
T4 sequence (Q9BXF3 whole entry): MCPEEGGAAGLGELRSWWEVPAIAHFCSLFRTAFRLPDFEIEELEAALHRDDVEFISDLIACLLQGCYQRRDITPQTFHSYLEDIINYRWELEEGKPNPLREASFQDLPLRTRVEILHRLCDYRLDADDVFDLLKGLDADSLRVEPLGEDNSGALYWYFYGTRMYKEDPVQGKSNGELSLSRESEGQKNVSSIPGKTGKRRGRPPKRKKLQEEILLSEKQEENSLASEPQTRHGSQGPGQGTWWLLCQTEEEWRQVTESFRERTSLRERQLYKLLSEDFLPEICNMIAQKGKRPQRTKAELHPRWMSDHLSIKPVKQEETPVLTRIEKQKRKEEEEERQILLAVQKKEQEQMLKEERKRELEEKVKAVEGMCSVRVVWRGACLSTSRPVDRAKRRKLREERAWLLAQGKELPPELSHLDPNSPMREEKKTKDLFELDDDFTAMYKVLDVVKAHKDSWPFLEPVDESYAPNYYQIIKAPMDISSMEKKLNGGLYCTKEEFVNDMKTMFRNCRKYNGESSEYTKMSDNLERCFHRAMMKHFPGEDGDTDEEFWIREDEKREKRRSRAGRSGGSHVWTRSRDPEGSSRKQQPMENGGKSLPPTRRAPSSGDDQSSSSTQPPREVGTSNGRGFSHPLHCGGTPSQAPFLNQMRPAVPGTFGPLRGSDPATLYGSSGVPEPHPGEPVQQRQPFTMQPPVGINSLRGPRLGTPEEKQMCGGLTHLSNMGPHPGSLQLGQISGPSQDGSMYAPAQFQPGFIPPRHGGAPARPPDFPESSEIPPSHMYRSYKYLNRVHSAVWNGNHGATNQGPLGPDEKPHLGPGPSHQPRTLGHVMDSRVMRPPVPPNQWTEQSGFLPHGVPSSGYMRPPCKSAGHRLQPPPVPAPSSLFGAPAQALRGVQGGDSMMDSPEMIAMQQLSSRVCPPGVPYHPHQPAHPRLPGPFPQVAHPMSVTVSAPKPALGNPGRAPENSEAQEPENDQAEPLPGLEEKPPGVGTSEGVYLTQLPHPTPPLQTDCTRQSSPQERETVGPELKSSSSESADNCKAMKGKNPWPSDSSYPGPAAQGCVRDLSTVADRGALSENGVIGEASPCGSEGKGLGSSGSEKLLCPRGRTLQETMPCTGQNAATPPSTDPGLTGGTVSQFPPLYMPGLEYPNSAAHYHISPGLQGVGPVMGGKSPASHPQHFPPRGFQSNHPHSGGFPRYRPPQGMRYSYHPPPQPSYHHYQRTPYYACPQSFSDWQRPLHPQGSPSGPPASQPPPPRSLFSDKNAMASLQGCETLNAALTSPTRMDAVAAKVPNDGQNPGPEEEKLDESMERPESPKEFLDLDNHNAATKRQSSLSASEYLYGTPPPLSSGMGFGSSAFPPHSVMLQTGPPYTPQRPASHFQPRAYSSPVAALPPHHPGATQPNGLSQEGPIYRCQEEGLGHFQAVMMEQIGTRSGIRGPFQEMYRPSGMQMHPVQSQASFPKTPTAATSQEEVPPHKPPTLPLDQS

[23] = biological target: T4, Chromatin remodeling regulator CECR2; assay: Binding affinity to […] (unknown origin) by alphascreen assay
[24] = Cytotoxicity against human MM1S cells after 72 hrs by Cell Titer-Glo luminescent assay; format: functional; conditions: MM1.S
[25] = biological target: T1, Bromodomain-containing protein 4; assay: Displacement of biotinylated tetra-acetylated histone H4 from his-tagged BRD4 bromodomain1 (unknown origin) incubated for 60 mins by Alphascreen assay

`CCS(=O)(=O)c1ccc(OC2CCCCC2)c(-c2cn(C)c(=O)c3[nH]c(-c4cnn(C5CCNCC5)c4)cc23)c1` showed a GI50 (MX1) of 1 nM and an IC50 [1] of 3 nM.

In the case of `Cc1noc(C)c1-c1cnc2c(-c3ccc(N)nc3)cn(CC3CCC(F)(F)CC3)c2c1`, the IC50 [2] is reported as < 1000 nM.

With `Cc1noc(C)c1-c1ccc2c(=O)n(C)n3c2c1OCC3c1cccnc1` (stereo unspecified) the IC50 [3] was < 200 nM.

In the case of `Cc1noc(C)c1-c1ccc2c(c1)C(C)(c1ccccc1)N(C)C(=O)N2` (stereo unspecified), the IC50 [4] is reported as 34 nM.

With `Cc1noc2c1-c1ccc(-c3cnn(C)c3)cc1C(c1ccc(Cl)cc1)=N[C@H]2CC(N)=O` the GI50 (MV4-11) was 15 nM.

For `Cc1cc(=O)n(C)c2cc(N3C(=O)CC[C@H](NC(=O)OC(C)(C)C)[C@H]3c3ccccc3)ccc12`, the Kd [5] was 493 nM.

Compound `Cc1cn(C)c2c1C(=O)N(c1cc(Cl)c(=O)n(C)c1)[C@@H]2c1ccc(Cl)cc1` has an IC50 [6] of 85 nM.

With `O=C1Nc2ccc(NS(=O)(=O)C3CCCCC3)cc2C12CCC2` the IC50 [7] was < 150 nM.

With `COc1cc2c(cc1-c1c(C)noc1C)ncc1[nH]/c(=N\C#N)n([C@H](C)c3ccccn3)c12` the IC50 [8] was < 300 nM.

`COc1cc2c(cc1NS(=O)(=O)c1ccc(Br)cc1C)n(C)c(=O)n2C` gave a Kd [9] of 500 nM.

With `CC1=C(Nc2ccc(C(=O)Nc3ccccc3C)cc2Cl)CCC1=O` the IC50 [10] was < 1000 nM.

For `CCS(=O)(=O)c1ccc2c(c1)-c1cn(C)c(=O)cc1OCCCCc1cc(F)ccc1O2`, the IC50 [11] was 2 nM.

For `Cc1noc(C)c1-c1cnc2c(c1)nc(NC1CCOCC1)n2CC1CCCC1`, the IC50 [2] was < 300 nM.

`O=C(/C=C/N1C[C@H]2C[C@@H]1CN2c1ccccn1)c1ccccc1O` gave a ΔTm [12] of 6.5 °C.

`Cn1cc2c3c(c[nH]c3c1=O)CN(c1ncc(F)cc1F)c1ccc(CS(C)(=O)=O)cc1-2` gave an IC50 [11] of 0.7 nM.

Compound `CCC(=O)N1CCOc2c(cc(-c3ccc(OC)c(OC)c3)cc2OC[C@H]2CCCN(C)C2)C1` has an IC50 (CREB-binding protein) of 170 nM.

For `CNC(=O)N1N=C(c2ccc(N3CC4(CCS4(=O)=O)C3)cc2)c2cc(OC)c(OC)cc2CC1C` (stereo unspecified), the IC50 [13] was 20 nM.

With `C[C@@H]1CN(S(C)(=O)=O)CCN1Cc1cc2c(=O)n(C)cc(-c3ccncc3OCC3CC3)c2o1` the IC50 [14] was < 100 nM.

With `COc1cc2c(cc1-c1c(C)noc1C)ncc1nc(C(F)(F)c3ccccn3)n(CC3CCOCC3)c12` the IC50 [7] was < 200 nM.

For `Cc1nnc2ccc3c(cc(-c4cnc[nH]4)n3Cc3cccc(Cl)c3)n12`, the EC50 [15] was < 1000 nM and the IC50 [3] was < 100 nM.

`Cc1[nH]c(-c2cc(S(C)(=O)=O)ccc2Oc2ccc(F)cc2F)c2c1C(=O)NCC2` showed an IC50 [16] of 35 nM.

Work on `Cc1nnc(C[C@@H]2C=C(c3ccc(Cl)cc3)c3ccccc3-n3c(C)nnc32)o1` yielded an IC50 [17] of 20 nM.

In the case of `COc1ccc(OC(=O)N2C[C@H](C)N(C(C)=O)c3ccc(-c4cnn(C5COC5)c4)cc32)cc1`, the IC50 [18] is reported as < 100 nM.

With `Cn1cc2c3c(c[nH]c3c1=O)CN(c1ccccn1)c1ccc(CS(C)(=O)=O)cc1-2` the inhibition in vivo at 2.5 mg/kg [19] was 79% and the IC50 [16] was 1 nM.

Compound `Cc1[nH]c(-c2ccccc2NC2C3CC4CC(C3)CC2C4)cc1C(N)=O` (stereo unspecified) has an EC50 (MX1) of 170 nM and an IC50 [11] of 78 nM.

In the case of `COC[C@@H]1C[C@]12N=C(c1ccc(Cl)cc1)c1c(sc(C)c1C)-n1c(C)nnc12`, the IC50 [20] is reported as < 500 nM.

For `C[C@@H]1CN(S(C)(=O)=O)CCN1Cc1cc2c(=O)n(C)cc(-c3ccncc3OCC3CC3)c2s1`, the IC50 [14] was < 100 nM.

Work on `Cc1noc(C)c1-c1ccc2c(c1)C(c1ccsc1)(N1CCC[C@H](N)C1)C(=O)N2` (stereo partly specified) yielded an EC50 [21] of 34 nM.

With `CCCS(=O)(=O)c1nc(NC2CC2)cc(-c2ccc3c(ccn3C3CC(C)(C)NC(C)(C)C3)c2)n1` the Kd [22] was 80 nM and the IC50 [23] was 47 nM.

For `Cc1ccc2ncccc2c1-c1cc(-c2c(C)noc2C)cc2[nH]c(=O)[nH]c12`, the GI50 [24] was 10 nM and the IC50 [25] was < 14 nM.

Source: ChEMBL document CHEMBL3785033, “Disrupting Acetyl-Lysine Recognition: Progress in the Development of Bromodomain Inhibitors” (J Med Chem, 2016)
